Test results published in US20240150377A1, “MODULATORS OF CYSTIC FIBROSIS TRANSMEMBRANE CONDUCTANCE REGULATOR” (VERTEX PHARMACEUTICALS INCORPORATED, priority 2020, published 2024).
Like-named read-outs stand apart in the source and are kept apart here.

Molecular target: CFTR (Homo sapiens, UniProt P13569)
Test: Membrane potential dye, Enteroid Assay A
Type: cell-based
Conditions: for Ent. A Max Activity: chloride transport as % of triple combination control (Enteroid Assay A); for EC50: human enteroid cells, 18-24 hours, acute 10 μM forskolin and 300 nM ivacaftor, read-out: Ent. A EC50
Protocol: Base medium (ADF+++) consisted of Advanced DMEM/Ham's F12, 2 mM Glutamax, 10 mM HEPES, […] penicillin/streptomycin.
Intestinal enteroid maintenance medium (IEMM) consisted of ADF+++, 1× B27 supplement, 1× N2 supplement, 1.25 mM N-acetyl cysteine, 10 mM Nicotinamide, 50 ng/mL hEGF, 10 nM Gastrin, 1 μg/mL hR-spondin-1, 100 ng/mL hNoggin, TGF-b type 1 inhibitor A-83-01, 100 μg/mL Primocin, 10 μM P38 MAPK inhibitor SB202190.
Bath 1 Buffer consisted of 1 mM MgCl2, 160 mM NaCl, 4.5 mM KCl, 10 mM HEPES, 10 mM Glucose, 2 mM CaCl2).
Chloride Free Buffer consisted of 1 mM Magnesium Gluconate, 2 mM Calcium Gluconate, 4.5 mM Potassium Gluconate, 160 mM Sodium Gluconate, 10 mM HEPES, 10 mM Glucose.
BathI Dye Solution consisted of Bath 1 Buffer, 0.04% Pluronic F127, 20 μM Methyl Oxonol, 30 μM CaCCinh-A01, 30 μM Chicago Sky Blue.
Chloride Free Dye Solution consisted of Chloride Free Buffer, 0.04% Pluronic F127, 20 μM Methyl Oxonol, 30 μM CaCCinh-A01, 30 μM Chicago Sky Blue.
Chloride Free Dye Stimulation Solution consisted of Chloride Free Dye Solution, 10 μM forskolin, 100 μM IBMX, and 300 nM Compound III.
Human intestinal epithelial enteroid cells were obtained from the Hubrecht Institute for Developmental Biology and Stem Cell Research, Utrecht, The Netherlands and expanded in T-Flasks as previously described (Dekkers J F, Wiegerinck C L, de Jonge H R, Bronsveld I, Janssens H M, de Winter-de Groot K M, Brandsma A M, de Jong N W M, Bijvelds M J C, Scholte B J, Nieuwenhuis E E S, van den Brink S, Clevers H, van der Ent C K, Middendorp S and M Beekman J M. A functional CFTR assay using primary cystic fibrosis intestinal organoids. Nat Med. 2013 July;19(7):939-45.).
3. Enteroid Cell Harvesting and Seeding
Cells were recovered in cell recovery solution, collected by centrifugation at 650 rpm for 5 min at 4° C., resuspended in TrypLE and incubated for 5 min at 37° C. Cells were then collected by centrifugation at 650 rpm for 5 min at 4° C. and resuspended in IEMM containing 10 μM ROCK inhibitor (RI). The cell suspension was passed through a 40 μm cell strainer and resuspended at 1×10^6 cells/mL in IEMM containing 10 μM RI. Cells were seeded at 5000 cells/well into multi-well plates and incubated for overnight at 37° C., 95% humidity and 5% CO2 prior to assay.
4. Membrane Potential Dye, Enteroid Assay A
Enteroid cells were incubated with test compound in IEMM for 18-24 hours at 37° C., 95% humidity and 5% CO2. […] Briefly, cells were washed 5 times in Bath 1 Buffer. Bath 1 Dye Solution was added, and the cells were incubated for 25 min at room temperature. Following dye incubation, cells were washed 3 times in Chloride Free Dye Solution. Chloride transport was initiated by addition of Chloride Free Dye Stimulation Solution and the fluorescence signal was read for 15 min. […] Chloride transport was then expressed as a percentage of the chloride transport following treatment with 3 μM N-[(6-amino-2-pyridyl)sulfonyl]-6-(3-fluoro-5-isobutoxy-phenyl)-2-[(4S)-2,2,4-trimethylpyrrolidin-1-yl]pyridine-3-carboxamide, 3 μM (R)-1-(2,2-difluorobenzo[d][1,3]dioxol-5-yl)-N-(1-(2,3-dihydroxypropyl)-6-fluoro-2-(1-hydroxy-2-methylpropan-2-yl)-1H-indol-5-yl)cyclopropanecarboxamide and 300 nM acute N-[2,4-bis(1,1-dimethylethyl)-5-hydroxyphenyl]-1,4-dihydro-4-oxoquinoline-3-carboxamide triple combination control (% Activity).

Sequence of CFTR (P13569 with tags, fused parts or gaps DEL508-508): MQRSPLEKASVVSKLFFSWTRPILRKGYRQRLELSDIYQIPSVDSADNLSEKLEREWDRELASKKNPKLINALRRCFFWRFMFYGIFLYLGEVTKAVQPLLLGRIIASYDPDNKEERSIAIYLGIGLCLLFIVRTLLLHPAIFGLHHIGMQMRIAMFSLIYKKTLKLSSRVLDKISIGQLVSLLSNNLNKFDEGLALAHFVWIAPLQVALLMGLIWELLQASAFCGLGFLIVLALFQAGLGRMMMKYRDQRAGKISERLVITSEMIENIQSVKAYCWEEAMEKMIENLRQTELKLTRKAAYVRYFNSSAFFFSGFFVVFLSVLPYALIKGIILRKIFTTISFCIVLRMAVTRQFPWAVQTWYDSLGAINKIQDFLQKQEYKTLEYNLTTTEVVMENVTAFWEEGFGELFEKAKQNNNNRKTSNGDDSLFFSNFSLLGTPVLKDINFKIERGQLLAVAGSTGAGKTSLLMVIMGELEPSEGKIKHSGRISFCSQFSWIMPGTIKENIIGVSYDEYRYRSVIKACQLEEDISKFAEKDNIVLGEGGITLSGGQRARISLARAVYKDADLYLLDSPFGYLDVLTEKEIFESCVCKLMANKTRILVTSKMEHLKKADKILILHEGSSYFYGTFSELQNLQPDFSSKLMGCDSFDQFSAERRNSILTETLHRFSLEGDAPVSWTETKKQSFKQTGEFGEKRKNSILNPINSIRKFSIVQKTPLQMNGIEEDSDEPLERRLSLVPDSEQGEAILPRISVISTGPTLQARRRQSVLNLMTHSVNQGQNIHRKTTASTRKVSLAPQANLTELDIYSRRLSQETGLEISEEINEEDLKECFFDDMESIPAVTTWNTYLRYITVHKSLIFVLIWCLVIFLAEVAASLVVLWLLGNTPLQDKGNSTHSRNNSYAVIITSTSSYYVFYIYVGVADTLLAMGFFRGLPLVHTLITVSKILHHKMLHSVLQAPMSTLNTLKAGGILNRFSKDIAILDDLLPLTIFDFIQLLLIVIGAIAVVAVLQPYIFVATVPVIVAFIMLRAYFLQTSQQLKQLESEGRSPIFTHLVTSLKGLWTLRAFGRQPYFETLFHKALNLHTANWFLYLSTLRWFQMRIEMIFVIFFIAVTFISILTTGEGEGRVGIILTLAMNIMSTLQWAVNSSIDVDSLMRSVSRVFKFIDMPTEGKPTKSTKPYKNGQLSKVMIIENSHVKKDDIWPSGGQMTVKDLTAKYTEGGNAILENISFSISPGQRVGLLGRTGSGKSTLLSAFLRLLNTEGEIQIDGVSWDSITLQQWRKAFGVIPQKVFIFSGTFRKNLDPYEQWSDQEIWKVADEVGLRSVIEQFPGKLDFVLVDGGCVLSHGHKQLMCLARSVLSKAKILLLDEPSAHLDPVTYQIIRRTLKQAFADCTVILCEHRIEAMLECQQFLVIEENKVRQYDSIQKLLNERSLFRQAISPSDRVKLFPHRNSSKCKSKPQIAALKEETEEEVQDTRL

| Ent. A Max Activity (Table 7) | EC50 (Table 7) | Ent. A Max Activity (Table 6) | EC50 (Table 6) | SMILES |
| --- | --- | --- | --- | --- |
| +++ (+++ is >60%) | < 1000 nM | – | – | CNC(=O)c1ccc(CN2C(=O)c3cccc(c3)S(=O)(=O)Nc3nc(cc(-c4c(C)cccc4C)n3)OC[C@H]2CC2(C(F)(F)F)CC2)cc1 [Compound 683] |
| – | – | +++ (+++ is >60%) | < 1000 nM | Cc1cccc(C)c1-c1cc2nc(n1)NS(=O)(=O)c1cccc(c1)C(=O)N(Cc1ccc(N3CCCC3)cc1)[C@H](CC(C)C)CO2 [Compound 858] |
| ++ (++ is 30-60%) | < 1000 nM | – | – | Cc1cccc(C)c1-c1cc2nc(n1)NS(=O)(=O)c1cccc(c1)C(=O)N(C)[C@H](c1ccc(C(C)(C)C)cc1)CO2 [Compound 1010] |
| +++ (+++ is >60%) | < 1000 nM | – | – | Cc1cccc(C)c1-c1cc2nc(n1)NS(=O)(=O)c1cccc(c1)C(=O)N(C)CC(c1ccc(C3=CCOCC3)cc1)O2 (stereo not drawn) [Compound 671] |
| + (+ is <30%) | 3000 to 30000 nM | – | – | Cc1cccc(C)c1-c1cc2nc(n1)NS(=O)(=O)c1cccc(c1)C(=O)N(CCC1CCOCC1)[C@H](C)CO2 [Compound 988] |
| – | – | +++ (+++ is >60%) | < 1000 nM | Cc1cccc(C)c1-c1cc2nc(n1)NS(=O)(=O)c1cccc(c1)C(=O)N(C[C@@H](O)CO)[C@H](CC(C)C)CO2 [Compound 38, (11R)-12-[(2R)-2,3-Dihydroxypropyl]-6-(2,6-dimethylphenyl)-11-(2-methylpropyl)-9-oxa-2λ^6-thia-3,5,12,19-tetraazatricyclo[12.3.1.14,8]nonadeca-1(17),4(19),5,7,14(18),15-hexaene-2,2,13-trione] |
| +++ (+++ is >60%) | < 1000 nM | – | – | Cc1cccc(C)c1-c1cc2nc(n1)NS(=O)(=O)c1cccc(c1)C(=O)N(Cc1ccc(N3CCN(C)CC3)nc1)[C@H](CC1(C(F)(F)F)CC1)CO2 [Compound 684] |
| – | – | ++ (++ is 30-60%) | 1000 to 3000 nM | Cc1cccc(C)c1-c1cc2nc(n1)NS(=O)(=O)c1cccc(c1)C(=O)N(C)CC(c1ccc(C#N)cc1)O2 (stereo not drawn) [Compound 667] |
| – | – | +++ (+++ is >60%) | < 1000 nM | COC(=O)CCCN1C(=O)c2cccc(c2)S(=O)(=O)Nc2nc(cc(-c3c(C)cccc3C)n2)OC[C@H]1CC(C)C [Compound 367] |
| ++ (++ is 30-60%) | 1000 to 3000 nM | – | – | Cc1cccc(C)c1-c1cc2nc(n1)NS(=O)(=O)c1cccc(c1)C(=O)N(C)CC(c1ccc(C3=CCOCC3)cc1)O2 (stereo not drawn) [Compound 670] |
| + + | < 1000 nM | – | – | COCCN1Cc2cccc(c2)S(=O)(=O)Nc2nc(cc(-c3c(C)cccc3C)n2)OC[C@H]1CC(C)C [Compound 1042] |
| +++ (+++ is >60%) | < 1000 nM | – | – | Cc1cccc(C)c1-c1cc2nc(n1)NS(=O)(=O)c1cccc(c1)C(=O)N(Cc1ccc(N3CCC(C(C)(C)C)CC3)nc1)[C@H](CC(C)C)CO2 [Compound 941] |
| – | – | +++ (+++ is >60%) | < 1000 nM | Cc1cccc(C)c1-c1cc2nc(n1)NS(=O)(=O)c1cccc(c1)C(=O)N(C)CC(c1ccc(-c3ccc(C(C)(C)C)cc3)cn1)O2 (stereo not drawn) [Compound 511] |
| – | – | ++ (++ is 30-60%) | 3000 to 30000 nM | Cc1cccc(C)c1-c1cc2nc(n1)NS(=O)(=O)c1cccc(c1)C(=O)N(CCCC(=O)O)[C@H](CC(C)C)CO2 [Compound 359] |
| ++ (++ is 30-60%) | < 1000 nM | – | – | COCC1CCN(c2ccc(CN3C(=O)c4cccc(c4)S(=O)(=O)Nc4nc(cc(-c5c(C)cccc5C)n4)OC[C@H]3CC(C)C)cn2)CC1 [Compound 970] |
| ++ (++ is 30-60%) | 1000 to 3000 nM | – | – | Cc1cccc(C)c1-c1cc2nc(n1)NS(=O)(=O)c1cccc(c1)C(=O)N(CCC1CCOCC1)[C@H](CC(F)(F)F)CO2 [Compound 982] |

| SMILES | Ent. A Max Activity (Table 7) | EC50 (Table 7) | Ent. A Max Activity (Table 6) | EC50 (Table 6) |
| --- | --- | --- | --- | --- |
| Cc1cccc(C)c1-c1cc2nc(n1)NS(=O)(=O)c1cccc(c1)C(=O)N(C)CC(CN1C3CCC[C@H]1CC3)O2 (stereo partly drawn) [Compound 1015] | – | – | + (+ is <30%) | – |
